This note sets out measurements from publication PMC12516379, “Rotamer-Controlled Self-Immolative Linkers Enable Tunable Release of Neurosteroid Oxime Prodrugs” (ACS Medicinal Chemistry Letters, 2025).

Data set [1] is described as follows: Aqueous solubility by visual inspection in acetate buffer (pH 5). Conditions: sodium acetate buffer, pH 5, aqueous buffer, thermodynamic from solid.
Experimental: For the solubility assessment, acetate buffer (pH 5) was selected as the media of choice to ensure prodrug stability during analysis.
High aqueous solubility was determined by visual inspection of 5 mg solid material in 0.5 mL
sodium acetate buffer solution. This media was selected to ensure stability of prodrugs during
dissolution in 50 mg/mL aqueous media.
Data set [2] in a line: Stability in acetate buffer pH 5.0 at room temperature via HPLC (UV). The class given is physicochemical. Summed up:
(§1)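 Progesterone prodrugs dissolved at 1 mg/mL in PBS (pH 7.03) or 10 mM acetate buffer (pH 5.0), kept at RT and reinjected over time, HPLC-UV AUC at 254 nm. Percent parent remaining; k from ln(%remaining) vs time, pseudo-first-order t1/2 = 0.693/k; duplicates averaged.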

Data set [3] in a line: PBS stability assay at 37 °C via LC-MS/MS. The data set is classed as physicochemical. Conditions: 37 °C; for half-life at 3 µM: pH 7.03, PBS.
Data set [4] can be described thus: Plasma stability assay via LC-MS/MS, mouse plasma. The data set is classed as in vitro ADME. Conditions: read-out: t1/2 in mouse plasma (Table S20) (converted). The protocol:
(§2) Building on our observation that rotamer control in the steric series can be modulated by enzymatic stabilization or activation, we next evaluated whether this effect was species dependent. To investigate this, we performed comparative stability studies by incubating select prodrugs (20a, 20b, 20l and 20t; Figure ) in mouse and rat plasma – two of the most commonly used preclinical species in drug development. This approach allowed us to assess the potential influence of species-specific enzymes on rotamer equilibria and, by extension, prodrug activation rates. The self-immolation profiles for the sterically tuned linker series (20a–b) reveal discernible, species-dependent differences prodrug stability. […] While the precise biochemical drivers remain unclear, this observation warrants further investigation beyond the scope of this work.
(§3) 1.2 Stability in Plasma and PBS via LCMS
(§4) Procaine (positive control) was purchased from Sigma-Aldrich. HPLC grade MeCN, MeOH, H2O, and FA were purchased from Fischer Scientific. Human plasma (cat. No. […]- […]
(§5) 0102242) were obtained from BIOIVT. DPBS 1X (no calcium, no magnesium, pH = 7.03) was purchased from Thermo Fischer Scientific. Stock solutions were prepared in 100% DMSO, and suitable dilutions of target analytes were prepared in 0.1% FA /MeCN for method development.
(§6) For PBS assay Gibco® Dulbecco’s phosphate-buffered saline (DPBS 1X, no calcium, no magnesium, pH = 7.03) was utilized. All experiments were performed in duplicate and results are presented as the average of two experimental replicates.
(§7) Procedure for Plasma Stability Assay
(§8) Test compounds and positive control (i.e. procaine) were dissolved in DMSO to make a 10 mM stock solution and subsequently diluted to 500 μM in 50% MeCN and PBS. This intermediate stock solution was prepared and added immediately prior to the start of each test compound experiment. Plasma was thawed at ambient temperature and aliquoted (663.0 μL) into 1.5 mL Eppendorf tubes. Plasma was incubated at 37 °C for 10 minutes in an incubator shaker at 150 rpm, and the reactions were initiated by addition of the test compound or positive control (4.0 µL, 3 μM). The spiked plasma samples were incubated at 37 °C. For designated time points, 75 µL aliquots were removed from the incubation mixture and immediately quenched in 150 µL of MeCN/0.1%FA with internal standard (ISTD, 2 µM d 5-7-ethoxy coumarin). […] The supernatant was transferred to an LC-MS vial and analyzed by LC/MS-MS. […]
(§9) LC–MS/MS analysis was performed using an Agilent 1260 Infinity II HPLC, coupled with an Agilent G6460 triple quadrupole mass spectrometer (Agilent Technologies, USA). All the data were acquired employing Agilent 6460 Quantitative Analysis data processing software. […]

The nature of data set [5]: Plasma stability assay via LC-MS/MS, rat plasma. Conditions: read-out: t1/2 in rat plasma (Table S19) (converted). The class given is in vitro ADME. The protocol:
as §2, §3, §4, §5, §6, §7, §8, §9

Data set [6] in a line: Stability in PBS at room temperature via HPLC (UV). The data set is classed as physicochemical. Conditions: phosphate-buffered saline (DPBS). Summed up: as §1

As a reminder, the solubility is the dissolved amount per volume that the medium holds. Higher therefore signals a readily soluble substance. As a reminder, the amount remaining is the share of the starting amount still present when the sample was taken. Compound `CNCCN(C)C(=O)O/N=C(\C)[C@H]1CC[C@H]2[C@@H]3CCC4=CC(=O)CC[C@]4(C)[C@H]3CC[C@]12C` [20a] showed a solubility in data set [1] of over 10000 µg/mL. For the same compound, the half-life at 1 mg/mL is over 168 h in data set [2] (pH 5, acetate buffer pH 5.0, RT, 1 mg/mL, HPLC 254 nm, read-out: t1/2 in acetate buffer at RT (Tables S5-S8) (converted)); over 168 h in data set [2] (pH 5, acetate buffer pH 5.0, rt, HPLC (UV), read-out: Half-life (t½) pH 5.0 rt (converted)); over 168 h in data set [2] (pH 5, acetate buffer pH 5.0, rt, read-out: t½: pH 5.0, rt (Table S23) (converted)); 46.9 ± 0.77 h in data set [6] (pH 7.03, DPBS pH 7.03, RT, 1 mg/mL, HPLC 254 nm, read-out: t1/2 in PBS buffer at RT (Tables S1-S4) (converted)); 46.9 h in data set [6] (pH 7.03, PBS, rt, HPLC (UV), read-out: Half-life (t½) PBS rt (converted)); 46.9 h in data set [6] (pH 7.03, PBS, rt, read-out: t½: PBS, rt (Table S23) (converted)). For the same compound, the “PBS, 37 °C %rem. at 2h (Table S23)” value in data set [3] (PBS, 2 h) came to 77%. Besides, the half-life at 3 µM in data set [3] (phosphate-buffered saline (DPBS), 3 µM, LC-MS/MS, read-out: t1/2 in PBS at 37 °C (Tables S14-S17) (converted)) was 8.07 h; in data set [3] (phosphate-buffered saline (DPBS), LC-MS/MS, read-out: Half-life (t½) PBS 37°C (converted)), 8.07 h; in data set [3] (phosphate-buffered saline (DPBS), read-out: PBS, 37 °C t½ (Table S23) (converted)), 8.07 h; in data set [3] (phosphate-buffered saline (DPBS), read-out: t1/2 (h) PBS, 37 °C (Tables S25, S26) (converted)), 8.07 h; in data set [4] it was 4.7 h; in data set [5], 3.88 h. Moreover, in data set [3] (phosphate-buffered saline (DPBS), pH 7.03, PBS, 2 h, read-out: % Remaining @ 2h, PBS, 37 °C (Tables S25, S26)), the fraction remaining at 2 h, 3 µM came to 77%.
